Reference: publication PMC10905675, “INX-315, a Selective CDK2 Inhibitor, Induces Cell Cycle Arrest and Senescence in Solid Tumors” (Cancer Discovery, 2023)

What was measured:
Experiment in all cases: SelectScreen ZLYTE
Format in all cases: biochemical
Conditions in all cases: INX-0315 at 100nM
[1] = target: T1, INSRR (IRR) (Homo sapiens, UniProt P14616)
T1 construct: purchased Thermo Fisher Scientific SelectScreen (plus Nanosyn / Reaction Biology for CDK/cyclin lines)
Procedure, shortened: (§1)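 Preset conditions throughout. Primary: 100 nmol/L INX-315, 1% DMSO. Secondary: ten doses, top 1 µmol/L, bottom 0.0495 nmol/L.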

[2] = target: T2, CSNK1G1 (CK1 gamma 1) (Homo sapiens, UniProt Q9HCP0)
T2 construct: purchased Thermo Fisher Scientific SelectScreen (plus Nanosyn / Reaction Biology for CDK/cyclin lines)
Procedure, shortened: as §1

[3] = target: T3, TYK2 (Homo sapiens, UniProt P29597)
T3 construct: purchased Thermo Fisher Scientific SelectScreen (plus Nanosyn / Reaction Biology for CDK/cyclin lines)
Procedure, shortened: as §1

[4] = target: T4, TEK (Tie2) (Homo sapiens, UniProt Q02763)
T4 construct: purchased Thermo Fisher Scientific SelectScreen (plus Nanosyn / Reaction Biology for CDK/cyclin lines)
Procedure, shortened: as §1

[5] = target: T5, PTK2 (FAK) (Homo sapiens, UniProt Q05397)
T5 construct: purchased Thermo Fisher Scientific SelectScreen (plus Nanosyn / Reaction Biology for CDK/cyclin lines)
Procedure, shortened: as §1

[6] = target: T6, RET V804L (Homo sapiens, UniProt P07949, V804L)
T6 construct: purchased Thermo Fisher Scientific SelectScreen (plus Nanosyn / Reaction Biology for CDK/cyclin lines)
Procedure, shortened: as §1

[7] = target: T7, KIT V560G (Homo sapiens, UniProt P10721, V560G)
T7 construct: purchased Thermo Fisher Scientific SelectScreen (plus Nanosyn / Reaction Biology for CDK/cyclin lines)
Procedure, shortened: as §1

[8] = target: T8, JAK2 (Homo sapiens, UniProt O60674)
T8 construct: purchased Thermo Fisher Scientific SelectScreen (plus Nanosyn / Reaction Biology for CDK/cyclin lines)
Procedure, shortened: as §1

[9] = target: T9, TNK1 (Homo sapiens, UniProt Q13470)
T9 construct: purchased Thermo Fisher Scientific SelectScreen (plus Nanosyn / Reaction Biology for CDK/cyclin lines)
Procedure, shortened: as §1

[10] = target: T10, FYN (Homo sapiens, UniProt P06241)
T10 construct: purchased Thermo Fisher Scientific SelectScreen (plus Nanosyn / Reaction Biology for CDK/cyclin lines)
Procedure, shortened: as §1

[11] = target: T11, RPS6KA3 (RSK2) (Homo sapiens, UniProt P51812)
T11 construct: purchased Thermo Fisher Scientific SelectScreen (plus Nanosyn / Reaction Biology for CDK/cyclin lines)
Procedure, shortened: as §1

[12] = target: T12, PRKD2 (PKD2) (Homo sapiens, UniProt Q9BZL6)
T12 construct: purchased Thermo Fisher Scientific SelectScreen (plus Nanosyn / Reaction Biology for CDK/cyclin lines)
Procedure, shortened: as §1

[13] = target: T13, JAK2 JH1 JH2 V617F (Homo sapiens, UniProt O60674, V617F)
T13 construct: JAK2 JH1 JH2 V617F; purchased Thermo Fisher Scientific SelectScreen (plus Nanosyn / Reaction Biology for CDK/cyclin lines)
Procedure, shortened: as §1

[14] = target: T14, PRKX (Homo sapiens, UniProt P51817)
T14 construct: purchased Thermo Fisher Scientific SelectScreen (plus Nanosyn / Reaction Biology for CDK/cyclin lines)
Procedure, shortened: as §1

[15] = target: T15, HIPK3 (YAK1) (Homo sapiens, UniProt Q9H422)
T15 construct: purchased Thermo Fisher Scientific SelectScreen (plus Nanosyn / Reaction Biology for CDK/cyclin lines)
Procedure, shortened: as §1

[16] = target: T16, CAMK1G (CAMKI gamma) (Homo sapiens, UniProt Q96NX5)
T16 construct: purchased Thermo Fisher Scientific SelectScreen (plus Nanosyn / Reaction Biology for CDK/cyclin lines)
Procedure, shortened: as §1

[17] = target: T17, ABL1 Y253F (Homo sapiens, UniProt P00519, Y253F)
T17 construct: purchased Thermo Fisher Scientific SelectScreen (plus Nanosyn / Reaction Biology for CDK/cyclin lines)
Procedure, shortened: as §1

[18] = target: T18, TXK (Homo sapiens, UniProt P42681)
T18 construct: purchased Thermo Fisher Scientific SelectScreen (plus Nanosyn / Reaction Biology for CDK/cyclin lines)
Procedure, shortened: as §1

[19] = target: T19, AURKA (Aurora A) (Homo sapiens, UniProt O14965)
T19 construct: purchased Thermo Fisher Scientific SelectScreen (plus Nanosyn / Reaction Biology for CDK/cyclin lines)
Procedure, shortened: as §1

[20] = target: T20, MUSK (Homo sapiens, UniProt O15146)
T20 construct: purchased Thermo Fisher Scientific SelectScreen (plus Nanosyn / Reaction Biology for CDK/cyclin lines)
Procedure, shortened: as §1

[21] = target: T21, AMPK (A1/B2/G3) (Homo sapiens, UniProt Q13131)
T21 construct: purchased Thermo Fisher Scientific SelectScreen (plus Nanosyn / Reaction Biology for CDK/cyclin lines)
Procedure, shortened: as §1

[22] = target: T22, ROCK1 (Homo sapiens, UniProt Q13464)
T22 construct: purchased Thermo Fisher Scientific SelectScreen (plus Nanosyn / Reaction Biology for CDK/cyclin lines)
Procedure, shortened: as §1

[23] = target: T23, ZAP70 (Homo sapiens, UniProt P43403)
T23 construct: purchased Thermo Fisher Scientific SelectScreen (plus Nanosyn / Reaction Biology for CDK/cyclin lines)
Procedure, shortened: as §1

[24] = target: T24, SYK (Homo sapiens, UniProt P43405)
T24 construct: purchased Thermo Fisher Scientific SelectScreen (plus Nanosyn / Reaction Biology for CDK/cyclin lines)
Procedure, shortened: as §1

[25] = target: T25, PIM2 (Homo sapiens, UniProt Q9P1W9)
T25 construct: purchased Thermo Fisher Scientific SelectScreen (plus Nanosyn / Reaction Biology for CDK/cyclin lines)
Procedure, shortened: as §1

[26] = target: T26, FGFR3 V555M (Homo sapiens, UniProt P22607, V555M)
T26 construct: purchased Thermo Fisher Scientific SelectScreen (plus Nanosyn / Reaction Biology for CDK/cyclin lines)
Procedure, shortened: as §1

[27] = target: T27, AMPK A1/B1/G1 (Homo sapiens, UniProt Q13131)
T27 construct: purchased Thermo Fisher Scientific SelectScreen (plus Nanosyn / Reaction Biology for CDK/cyclin lines)
Procedure, shortened: as §1

[28] = target: T28, MAP2K6 (MKK6) (Homo sapiens, UniProt P52564)
T28 construct: purchased Thermo Fisher Scientific SelectScreen (plus Nanosyn / Reaction Biology for CDK/cyclin lines)
Procedure, shortened: as §1

[29] = target: T29, MAP4K5 (KHS1) (Homo sapiens, UniProt Q9Y4K4)
T29 construct: purchased Thermo Fisher Scientific SelectScreen (plus Nanosyn / Reaction Biology for CDK/cyclin lines)
Procedure, shortened: as §1

[30] = target: T30, FGR (Homo sapiens, UniProt P09769)
T30 construct: purchased Thermo Fisher Scientific SelectScreen (plus Nanosyn / Reaction Biology for CDK/cyclin lines)
Procedure, shortened: as §1

[31] = target: T31, LYN A (Homo sapiens, UniProt P07948)
T31 construct: purchased Thermo Fisher Scientific SelectScreen (plus Nanosyn / Reaction Biology for CDK/cyclin lines)
Procedure, shortened: as §1

[32] = target: T32, FRAP1 (mTOR) (Homo sapiens, UniProt P42345)
T32 construct: purchased Thermo Fisher Scientific SelectScreen (plus Nanosyn / Reaction Biology for CDK/cyclin lines)
Procedure, shortened: as §1

[33] = target: T33, GRK6 (Homo sapiens, UniProt P43250)
T33 construct: purchased Thermo Fisher Scientific SelectScreen (plus Nanosyn / Reaction Biology for CDK/cyclin lines)
Procedure, shortened: as §1

[34] = target: T34, ABL1 F317I (Homo sapiens, UniProt P00519, F317I)
T34 construct: purchased Thermo Fisher Scientific SelectScreen (plus Nanosyn / Reaction Biology for CDK/cyclin lines)
Procedure, shortened: as §1

[35] = target: T35, DNA-PK (Homo sapiens, UniProt P78527)
T35 construct: purchased Thermo Fisher Scientific SelectScreen (plus Nanosyn / Reaction Biology for CDK/cyclin lines)
Procedure, shortened: as §1

[36] = target: T36, GSK3B (GSK3 beta) (Homo sapiens, UniProt P49841)
T36 construct: purchased Thermo Fisher Scientific SelectScreen (plus Nanosyn / Reaction Biology for CDK/cyclin lines)
Procedure, shortened: as §1

[37] = target: T37, FER (Homo sapiens, UniProt P16591)
T37 construct: purchased Thermo Fisher Scientific SelectScreen (plus Nanosyn / Reaction Biology for CDK/cyclin lines)
Procedure, shortened: as §1

T1 sequence (P14616 27-1297): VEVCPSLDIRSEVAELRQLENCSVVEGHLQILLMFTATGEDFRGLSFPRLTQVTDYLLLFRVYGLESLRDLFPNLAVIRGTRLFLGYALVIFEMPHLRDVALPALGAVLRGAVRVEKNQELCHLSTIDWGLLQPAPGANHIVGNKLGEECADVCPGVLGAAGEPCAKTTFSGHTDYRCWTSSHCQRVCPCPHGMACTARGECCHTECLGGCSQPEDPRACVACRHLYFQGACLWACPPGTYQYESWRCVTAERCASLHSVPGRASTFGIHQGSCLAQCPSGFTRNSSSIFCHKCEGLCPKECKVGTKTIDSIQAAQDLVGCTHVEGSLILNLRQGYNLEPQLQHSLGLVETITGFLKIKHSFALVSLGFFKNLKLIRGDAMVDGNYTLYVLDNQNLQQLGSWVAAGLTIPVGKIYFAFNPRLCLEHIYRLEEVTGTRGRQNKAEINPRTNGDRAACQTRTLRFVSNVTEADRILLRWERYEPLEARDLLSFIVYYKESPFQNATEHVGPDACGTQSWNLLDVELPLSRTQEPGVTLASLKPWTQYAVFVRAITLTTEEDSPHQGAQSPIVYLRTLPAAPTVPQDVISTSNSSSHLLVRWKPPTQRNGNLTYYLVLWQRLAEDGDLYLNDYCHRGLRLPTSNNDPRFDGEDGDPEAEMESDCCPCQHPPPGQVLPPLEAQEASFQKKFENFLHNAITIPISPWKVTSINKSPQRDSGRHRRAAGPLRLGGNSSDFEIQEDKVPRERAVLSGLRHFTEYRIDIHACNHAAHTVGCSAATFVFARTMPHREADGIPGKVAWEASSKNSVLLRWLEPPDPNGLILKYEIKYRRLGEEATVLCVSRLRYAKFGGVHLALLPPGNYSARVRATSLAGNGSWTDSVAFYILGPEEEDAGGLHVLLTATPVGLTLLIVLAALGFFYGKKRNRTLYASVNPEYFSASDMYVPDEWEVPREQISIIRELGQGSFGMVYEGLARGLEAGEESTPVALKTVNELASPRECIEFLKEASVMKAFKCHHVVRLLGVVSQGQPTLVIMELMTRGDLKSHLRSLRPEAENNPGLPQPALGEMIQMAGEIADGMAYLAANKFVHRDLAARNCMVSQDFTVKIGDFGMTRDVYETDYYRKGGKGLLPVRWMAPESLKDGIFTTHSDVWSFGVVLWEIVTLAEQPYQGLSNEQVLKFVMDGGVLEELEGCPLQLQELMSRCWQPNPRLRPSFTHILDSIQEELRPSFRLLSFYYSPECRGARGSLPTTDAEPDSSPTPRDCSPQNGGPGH
T18 sequence (P42681 whole entry): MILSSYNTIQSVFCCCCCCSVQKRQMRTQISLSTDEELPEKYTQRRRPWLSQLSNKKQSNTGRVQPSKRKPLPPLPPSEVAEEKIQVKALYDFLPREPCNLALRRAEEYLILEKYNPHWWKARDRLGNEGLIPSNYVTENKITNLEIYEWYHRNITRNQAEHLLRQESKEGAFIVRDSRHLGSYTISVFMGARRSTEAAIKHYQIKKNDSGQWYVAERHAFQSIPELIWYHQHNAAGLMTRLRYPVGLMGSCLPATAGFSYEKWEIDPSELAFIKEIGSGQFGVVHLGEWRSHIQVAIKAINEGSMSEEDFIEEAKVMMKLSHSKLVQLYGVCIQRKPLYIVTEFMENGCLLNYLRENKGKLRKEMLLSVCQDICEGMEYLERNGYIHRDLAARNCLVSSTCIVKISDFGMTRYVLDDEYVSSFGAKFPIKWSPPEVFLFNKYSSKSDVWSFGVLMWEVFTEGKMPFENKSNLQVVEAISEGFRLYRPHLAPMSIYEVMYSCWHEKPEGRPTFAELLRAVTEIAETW
T5 sequence (Q05397 whole entry): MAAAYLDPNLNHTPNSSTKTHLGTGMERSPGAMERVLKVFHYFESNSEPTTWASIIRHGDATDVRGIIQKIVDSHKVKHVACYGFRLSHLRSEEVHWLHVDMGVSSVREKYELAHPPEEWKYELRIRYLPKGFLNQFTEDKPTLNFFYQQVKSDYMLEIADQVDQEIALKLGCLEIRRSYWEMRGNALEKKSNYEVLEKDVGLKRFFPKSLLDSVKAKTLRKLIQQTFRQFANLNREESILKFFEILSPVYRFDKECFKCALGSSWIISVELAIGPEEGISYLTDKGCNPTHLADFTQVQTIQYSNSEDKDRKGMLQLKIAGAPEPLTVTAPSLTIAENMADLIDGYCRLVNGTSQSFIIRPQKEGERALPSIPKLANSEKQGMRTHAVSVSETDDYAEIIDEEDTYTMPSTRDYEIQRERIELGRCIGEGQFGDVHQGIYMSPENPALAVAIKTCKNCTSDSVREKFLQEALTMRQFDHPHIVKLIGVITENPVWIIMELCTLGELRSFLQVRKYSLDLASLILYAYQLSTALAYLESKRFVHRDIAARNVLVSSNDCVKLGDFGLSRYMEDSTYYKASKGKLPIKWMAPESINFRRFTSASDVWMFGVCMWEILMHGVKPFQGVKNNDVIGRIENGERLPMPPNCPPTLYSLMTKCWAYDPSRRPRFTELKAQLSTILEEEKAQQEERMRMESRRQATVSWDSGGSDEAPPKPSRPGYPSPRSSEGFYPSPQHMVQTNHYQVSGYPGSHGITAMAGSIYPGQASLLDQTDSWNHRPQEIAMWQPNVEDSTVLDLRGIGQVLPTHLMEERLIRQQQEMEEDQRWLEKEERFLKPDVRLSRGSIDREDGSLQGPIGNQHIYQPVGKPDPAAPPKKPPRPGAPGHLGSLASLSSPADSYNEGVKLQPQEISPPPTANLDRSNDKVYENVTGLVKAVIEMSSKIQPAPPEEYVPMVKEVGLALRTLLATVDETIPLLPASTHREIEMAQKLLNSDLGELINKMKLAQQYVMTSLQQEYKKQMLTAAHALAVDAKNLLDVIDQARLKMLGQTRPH
T13 sequence (O60674 532-1132 V617F limits assumed): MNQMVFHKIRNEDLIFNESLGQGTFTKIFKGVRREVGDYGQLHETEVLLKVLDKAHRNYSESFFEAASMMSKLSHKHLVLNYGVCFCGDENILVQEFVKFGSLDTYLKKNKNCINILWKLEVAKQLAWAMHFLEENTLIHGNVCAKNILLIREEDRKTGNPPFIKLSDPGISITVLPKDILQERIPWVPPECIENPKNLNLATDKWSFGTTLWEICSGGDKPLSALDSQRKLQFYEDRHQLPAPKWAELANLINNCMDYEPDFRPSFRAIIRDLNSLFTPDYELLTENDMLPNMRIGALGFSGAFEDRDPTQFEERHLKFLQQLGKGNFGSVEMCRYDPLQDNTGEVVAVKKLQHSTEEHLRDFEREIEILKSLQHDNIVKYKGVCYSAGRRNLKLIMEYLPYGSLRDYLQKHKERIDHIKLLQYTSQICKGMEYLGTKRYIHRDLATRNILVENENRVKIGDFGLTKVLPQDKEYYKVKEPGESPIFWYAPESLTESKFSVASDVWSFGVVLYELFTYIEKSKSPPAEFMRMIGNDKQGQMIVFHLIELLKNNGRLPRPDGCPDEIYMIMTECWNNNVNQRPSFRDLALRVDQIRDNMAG
T29 sequence (Q9Y4K4 whole entry): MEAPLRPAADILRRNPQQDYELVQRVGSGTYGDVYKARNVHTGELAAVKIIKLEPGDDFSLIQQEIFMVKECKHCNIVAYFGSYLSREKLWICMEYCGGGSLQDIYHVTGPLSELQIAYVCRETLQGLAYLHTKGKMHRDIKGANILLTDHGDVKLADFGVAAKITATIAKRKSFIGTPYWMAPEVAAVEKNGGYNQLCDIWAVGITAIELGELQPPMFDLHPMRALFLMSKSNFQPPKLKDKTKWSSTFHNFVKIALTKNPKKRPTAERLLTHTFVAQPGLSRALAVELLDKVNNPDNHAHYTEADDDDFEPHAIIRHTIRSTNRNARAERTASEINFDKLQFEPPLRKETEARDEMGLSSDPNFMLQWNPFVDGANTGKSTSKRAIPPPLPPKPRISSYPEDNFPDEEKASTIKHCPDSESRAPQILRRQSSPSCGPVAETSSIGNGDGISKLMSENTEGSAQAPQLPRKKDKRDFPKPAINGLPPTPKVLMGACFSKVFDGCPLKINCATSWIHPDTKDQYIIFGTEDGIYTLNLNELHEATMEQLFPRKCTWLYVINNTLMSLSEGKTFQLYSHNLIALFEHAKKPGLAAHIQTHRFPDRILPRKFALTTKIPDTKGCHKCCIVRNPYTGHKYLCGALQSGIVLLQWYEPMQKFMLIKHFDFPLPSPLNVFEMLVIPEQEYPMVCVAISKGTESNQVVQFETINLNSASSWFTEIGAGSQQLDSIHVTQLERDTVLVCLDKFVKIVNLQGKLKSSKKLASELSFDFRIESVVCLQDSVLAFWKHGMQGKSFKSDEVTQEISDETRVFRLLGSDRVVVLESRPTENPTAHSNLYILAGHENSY
T30 sequence (P09769 whole entry): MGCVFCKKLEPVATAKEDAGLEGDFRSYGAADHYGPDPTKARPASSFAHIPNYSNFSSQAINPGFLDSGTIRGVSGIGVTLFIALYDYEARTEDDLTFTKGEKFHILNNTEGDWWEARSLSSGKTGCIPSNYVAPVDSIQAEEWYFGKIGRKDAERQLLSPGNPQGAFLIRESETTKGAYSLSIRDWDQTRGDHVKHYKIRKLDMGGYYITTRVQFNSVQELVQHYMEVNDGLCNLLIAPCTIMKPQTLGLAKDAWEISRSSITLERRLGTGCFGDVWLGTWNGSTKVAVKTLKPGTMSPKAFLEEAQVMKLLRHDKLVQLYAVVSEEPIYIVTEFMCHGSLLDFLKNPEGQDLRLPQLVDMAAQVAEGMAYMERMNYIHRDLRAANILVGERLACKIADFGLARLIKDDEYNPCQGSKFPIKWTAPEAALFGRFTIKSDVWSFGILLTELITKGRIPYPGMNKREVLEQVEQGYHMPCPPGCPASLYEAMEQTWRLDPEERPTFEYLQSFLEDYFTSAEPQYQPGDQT

NS(=O)(=O)c1ccc(Nc2ncc3cc4n(c3n2)C2(CCCCC2)C(=O)NN4)cc1 [INX-315]
inhibition at 0.1 µM [1]: 3% | inhibition at 0.1 µM [2]: 1% | inhibition at 0.1 µM [3]: 89% | inhibition at 0.1 µM [4]: -1% | inhibition at 0.1 µM [5]: 8% | inhibition at 0.1 µM [6]: 35% | inhibition at 0.1 µM [7]: 27% | inhibition at 0.1 µM [8]: 49% | inhibition at 0.1 µM [9]: 14% | inhibition at 0.1 µM [10]: 4% | inhibition at 0.1 µM [11]: 27% | inhibition at 0.1 µM [12]: 5% | inhibition at 0.1 µM [13]: 39% | inhibition at 0.1 µM [14]: 3% | inhibition at 0.1 µM [15]: 4% | inhibition at 0.1 µM [16]: 0% | inhibition at 0.1 µM [17]: 8% | inhibition at 0.1 µM [18]: 7% | inhibition at 0.1 µM [19]: 38% | inhibition at 0.1 µM [20]: 8% | inhibition at 0.1 µM [21]: 60% | inhibition at 0.1 µM [22]: 5% | inhibition at 0.1 µM [23]: -1% | inhibition at 0.1 µM [24]: 8% | inhibition at 0.1 µM [25]: 5% | inhibition at 0.1 µM [26]: 21% | inhibition at 0.1 µM [27]: 32% | inhibition at 0.1 µM [28]: 3% | inhibition at 0.1 µM [29]: 23% | inhibition at 0.1 µM [30]: 11% | inhibition at 0.1 µM [31]: 6% | inhibition at 0.1 µM [32]: 0% | inhibition at 0.1 µM [33]: 30% | inhibition at 0.1 µM [34]: 8% | inhibition at 0.1 µM [35]: 6% | inhibition at 0.1 µM [36]: 17% | inhibition at 0.1 µM [37]: 13%
